Patent US7074801B1, “Nitrogen-containing condensed cyclic compound having a pyrazolyl group as a substituent group and pharmaceutical composition thereof” (Eisai Co., Ltd., priority 2001, dated 2006)
Where a name gives a salt, the structure may show the parent alone.

test system: STAT6; assay: Inhibitory test on STAT6 activation: IL-4-induced alkali phosphatase STAT6 reporter in 293 cells stably expressing the STAT6 gene and STAT6 reporter gene; format: cell-based; settings: HEK293; Table 1; 1 ng/ml human recombinant IL-4, 16 hours, 293 cells with STAT6 reporter; read-out: Inhibitory activity IC50 (concentration at which the alkali phosphatase activity induced by IL-4 was inhibited by 50%)
Method in brief: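 HEK293 clone stably carrying STAT6 and a STAT6-element-driven alkaline phosphatase reporter, 5000 cells/well. Compound (DMSO ≤0.1%) plus 1 ng/ml human IL-4 for 16 hours. Supernatant heat-treated 65° C. 10 minutes, then alkaline phosphatase measured fluorometrically in carbonate buffer.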

IC50 [nM]	SMILES
< 10	Cc1n[nH]cc1-c1ccc2ncc(-c3ccc(C(=O)NN4CCCCC4)c(F)c3)n2c1 [Example 644, N1-Piperidino-2-fluoro-4-[6-(3-methyl-1H-4-pyrazolyl)-imidazo[1,2-a]pyridin-3-yl] benzamide dihydrochloride]
< 10	Fc1ccc(-c2n[nH]cc2-c2ccc3ncc(-c4nnc(C5CC5)o4)n3c2)c(F)c1 [Example 557, 3-(5-Cyclopropyl[1,3,4]oxadiazol-2-yl)6-[3-(2,4-difluorophenyl)-1H-pyrazol-4-yl]imidazo[1,2-a]pyridine]
< 10	O=C(Nc1ccc(F)cc1F)c1ccc(-c2cnc3ccc(-c4cn[nH]c4)cn23)cc1F [Example 678, N1-(2,4-Difluorophenyl)-2-fluoro-4-[6-(1H-4-pyrazolyl)-imidazo[1,2-a]pyridin-3-yl]benzamide hydrochloride]
< 10	Fc1ccc(-c2n[nH]cc2-c2ccc3ncc(-c4nnc(C5CC5)s4)n3c2)c(F)c1 [Example 556, 3-(5-Cyclopropyl[1,3,4]thiadiazol-2-yl)6-[3-(2,4-difluorophenyl)-1H-pyrazol-4-yl]imidazo[1,2-a]pyridine]
< 10	O=C(NC1(c2ccc(F)cc2F)CC1)c1ccc(-c2cnc3ccc(-c4cn[nH]c4)cn23)cc1F [Example 661, N1-[1-(2,4-Difluorophenyl)cyclopropyl]-2-fluoro-4-[6-(1H-4-pyrazolyl)imidazo[1,2-a]pyridin-3-yl]benzamide hydrochloride]
< 10	CC(C)c1nc(-c2cnc3ccc(-c4c[nH]nc4-c4ccccc4F)cn23)no1 [Example 605, 6-[3-(2-Fluorophenyl)-1H-4-pyrazolyl]-3-(5-isopropyl-[1,2,4]oxadiazol-3-yl)-imidazo[1,2-a]pyridine trihydrochloride]
10 to 100	O=C(Nc1nc2ccc(OC(F)(F)F)cc2s1)c1ccc(-c2cnc3ccc(-c4cn[nH]c4)cn23)cc1F [Example 670, N1-[6-(Trifluoromethoxy)-1,3-benzothiazol-2-yl]-2-fluoro-4-[6-(1H-4-pyrazolyl)imidazo[1,2-a]pyridin-3-yl]benzamide dihydrochloride]
< 10	N#CCC[C@H](O)c1nc2ccc(-c3cnc4ccc(-c5c[nH]nc5-c5ccc(F)cc5)cn34)cc2s1 [Example 628, (4S)-4-(6-{6-[3-(4-Fluorophenyl)-1H-4-pyrazolyl]imidazo-[1,2-a]pyridin-3-yl)-1,3-benzothiazol-2-yl)-4-hydroxybutane nitrile dihydrochloride]
10 to 100	Cc1cnc(NC(=O)c2ccc(-c3cnc4ccc(-c5cn[nH]c5)cn34)nc2)s1 [Example 655, N3-(5-Methyl-1,3-thiazol-2-yl)-6-[6-(1H-4-pyrazolyl)-imidazo[1,2-a]pyridin-3-yl]nicotinic acid amide trihydrochloride]
< 10	Cc1ccc(C(=O)C(C)(C)NC(=O)c2ccc(-c3cnc4ccc(-c5cn[nH]c5)cn34)cc2F)c(F)c1 [Example 674, hydrochloride]
< 10	N#Cc1ccc(-c2n[nH]cc2-c2ccc3ncc(-c4ccc(C(N)=O)cc4)n3c2)cc1 [Example 108, 4-{6-[3-(4-Cyanophenyl)-1H-4-pyrazolyl]imidazo[1,2-a]-pyridin-3-yl}benzamide dihydrochloride]
< 10	Cc1csc(NC(=O)c2ccc(-c3cnc4ccc(-c5cn[nH]c5)cn34)cc2)n1 [Example 629, N1-(4-Methyl-1,3-thiazol-2-yl)-4-[6-(1H-4-pyrazolyl)-imidazo[1,2-a]pyridin-3-yl]benzamide dihydrochloride]
< 10	Cc1n[nH]cc1-c1ccc2nccc(N3CCN(C(=O)Nc4ccccc4)CC3)c2c1 [Example 212, N-Phenyl-4-[6-(3-methyl-1H-4-pyrazolyl)-4-quinolyl]-1-piperazine carboxamide dihydrochloride]
< 10	CNc1nnc(-c2cnc3ccc(-c4c[nH]nc4-c4ccc(F)cc4F)cn23)o1 [Example 561]
< 10	COc1ccc(-c2cnc3ccc(-c4c[nH]nc4-c4ccc(F)cc4)cn23)cc1F [Example 622, 3-(3-Fluoro-4-methoxyphenyl)-6-[3-(4-fluorophenyl)-1H-4-pyrazolyl]imidazo[1,2-a]pyridine hydrochloride]

same assay, conditions: HEK293; Table 2; 1 ng/ml human recombinant IL-4, 16 hours, 293 cells with STAT6 reporter; read-out: Inhibitory activity IC50 (concentration at which the alkali phosphatase activity induced by IL-4 was inhibited by 50%)

IC50 [nM]	SMILES
< 10	CNc1ccc(-c2n[nH]cc2-c2ccc3ncnc(-c4ccc(S(C)(=O)=O)s4)c3c2)cc1 [Example 883, (4-{4-[4-(5-Methylsulfonylthiophen-2-yl)quinazolin-6-yl]-1H-pyrazol-3-yl}phenyl) methylamine]
100 to 1000	CS(=O)(=O)c1ccc(-c2ncnc3ccc(-c4c[nH]nc4CNc4ccc(F)cc4F)cc23)s1 [Example 906, 2,4-Difluorophenyl{4-[4-(5-methylsulfonylthiophen-2-yl)quinazolin-6-yl]-1H-pyrazol-3-ylmethyl} amine]
< 10	Fc1cccc(F)c1-c1n[nH]cc1-c1ccc2ncn(-c3ccc(Cl)cn3)c2c1 [Example 727, 1-(5-Chloropyridin-2-yl)-6-[3-(2,6-difluorophenyl)-1H-4-pyrazolyl]-1H-benzo[d]imidazole trihydrochloride]
< 10	CSc1ccc(-c2n[nH]cc2-c2ccc3ncnc(-c4ccc(S(C)(=O)=O)s4)c3c2)cc1 [Example 895, 6-[3-(4-Methylsulfanylphenyl)-1H-pyrazol-4-yl]-4-(5-methylsulfonylthiophen-2-yl) quinazoline]
< 10	CCS(=O)(=O)c1ccc(-c2ncnc3ccc(-c4c[nH]nc4-c4ccc(F)cc4)cc23)s1 [Example 896, 4-(5-Ethanesulfonylthiophen-2-yl)-6-[3-(4-fluorophenyl)-1H-pyrazol-4-yl] quinazoline]
< 10	CS(=O)(=O)c1cnc(-c2ncnc3ccc(-c4c[nH]nc4-c4c(F)cccc4F)cc23)s1 [Example 899, 6-[3-(2,6-Difluorophenyl)-1H-pyrazol-4-yl]-4-(5-methylsulfonylthiazol-2-yl) quinazoline]
< 10	CNS(=O)(=O)c1cccc(N2CCN(c3ncnc4ccc(-c5cn[nH]c5)cc34)CC2)c1 [Example 952, N-Methyl-3-{4-[6-(1H-pyrazol-4-yl)quinazolin-4-yl]piperazin-1-yl}benzene sulfonamide tri-trifluoroacetate]
100 to 1000	O=C(NC1CC1)c1ccc(-c2ncnc3ccc(-c4c[nH]nc4-c4ccc(F)cc4F)cc23)cc1F [Example 873, N-Cyclopropyl-4-{6-[3-(2,4-difluorophenyl)-1H-pyrazol-4-yl]quinazolin-4-yl}-2-fluorobenzamide dihydrochloride]
< 10	Cn1cc(-c2ncnc3ccc(-c4c[nH]nc4-c4c(F)cccc4F)cc23)cn1 [Example 910, 6-[3-(2,6-Difluorophenyl)-1H-pyrazol-4-yl]-4-(1-methyl-1H-pyrazol-4-yl) quinazoline]
< 10	O=S1(=O)CCCN1c1cccc(N2CCN(c3ncnc4ccc(-c5cn[nH]c5)cc34)CC2)c1 [Example 1000, 4-{4-[3-(1,1-Dioxo-isothiazolidin-2-yl)phenyl]piperazin-1-yl}-6-(1H-pyrazol-4-yl)quinazoline tri-trifluoroacetate]
< 10	Cc1cnn(-c2ncnc3ccc(-c4c[nH]nc4-c4c(F)cccc4F)cc23)c1 [Example 913, 6-[3-(2,6-Difluorophenyl)-1H-pyrazol-4-yl]-4-(4-methylpyrazol-1-yl) quinazoline]
